Key:
[1] = system: PD-L1 gene expression; test: PD-L1 gene expression in BMMCs from MM patient #2188 co-cultured with HS-5 stromal cells or THP-1 monocytes; assay type: cell-based, human; conditions: RUX 1 μM, 48 hours
Method: We also examined the effects of RUX on PD-L1 gene expression in MM tumor cells co-cultured with stromal cells or monocytes in vitro. BMMCs from MM patient #2188 were co-cultured with stromal cells from the HS-5 cell line (ATCC, CRL-11882) with or without RUX (1 μM) treatment. After 48 hours of co-culture, PD-L1 gene expression was increased in both BMMCs (FIG. 5A) and stromal cells (FIG. 5B) from the co-culture of both cell types compared with its expression in those cell types cultured alone. The increased PD-L1 levels were reduced in the presence of RUX (1 μM) in both cell populations after 48 hours of culture. Similarly, PD-L1 gene expression was increased in both BMMCs and monocytes (THP-1 cells) after co-culture compared with cells cultured alone (FIG. 5C and FIG. 5D) and reduced following exposure to RUX (1 μM).
FIG. 5A depicts relative PD-L1 gene expression in BMMCs from patient #2188 cultured with stromal cells (ATCC, HS-5) with RUX (1 μM) or without for 48 hours. BM, bone marrow cells alone; BM+1 μM, BMMCs treated with 1 μM RUX; BM/BM+S−0 μM, BMMCs with stromal cells without RUX; BM/BM+S+1 μM, BMMCs with stromal cells and 1 μM RUX.
FIG. 5B depicts relative PD-L1 gene expression in stromal cells (ATCC, HS-5) co-cultured with BMMCs from patient #2188 on Transwell inserts with (1 μM) or without RUX for 48 hours. Stroma cells (S) alone; stromal cells+1 μM, stromal cells treated with RUX (1 μM); S/BM+S−0 μM, BMMCs with stromal cells without RUX; S/BM+S−1 μM, BMMCs with stromal cells with RUX at 1 μM.
FIG. 5C depicts relative PD-L1 gene expression in BMMCs from patient #2188 co-cultured with THP-1 monocytes treated with (1 μM) or without RUX for 48 hours. BM, BMMCs alone; BM+1 μM, BMMCs treated with 1 μM RUX; BM/BM+T−0 μM, BMMCs with THP-1 monocytes without RUX; BM/BM+T+1 μM, BMMCs with THP-1 monocytes treated with RUX 1 μM.
FIG. 5D depicts relative PD-L1 gene expression in THP-1 monocytes co-cultured with BMMCs from patient #2188 on Transwell inserts with (1 μM) or without RUX for 48 hours. THP-1 only, THP-1 cells alone; THP-1+1 μM, THP-1 cells treated with 1 μM RUX; T/BM+T−0 μM, MM BMMCs with THP-1 cells without RUX; T/BM+T−1 μM, BMMCs with THP-1 monocytes with RUX (1 μM).

[2] = system: CD138+ myeloma tumor cells; test: Annexin V apoptosis assay of CD138-selected primary myeloma cells co-cultured with IL-2-stimulated T-cells; assay type: cell-based, human; conditions: CD138+ cells with IL-2-stimulated SUP-T1 T cells; 72 hours; RUX at varying concentrations; rose from approximately 35% up to this value, concentration dependent
Method: FIG. 10A depicts an apoptosis assay of fresh CD138-selected myeloma tumor cells combined with IL-2-stimulated T-cells (SUP-T1, ATCC) and treated with ruxolitinib (RUX) in vitro. T-cells were pre-treated with IL-2 (20 ng/ml) for 24 hours. Primary myeloma cells were CD138-selected using an immunoadsorption column and co-cultured with T cells with or without RUX at varying concentrations for 72 hours. Apoptosis in CD138+ cells was measured using the Annexin V assay per the manufacturer's protocol (Biovision) followed with flow cytometric analysis (FC-500 cytometer using Cytometrics CXP software, both Beckman Coulter). Minimal apoptosis was observed without T cells. Apoptosis occurred in a much higher proportion of myeloma tumor cells exposed to IL-2-stimulated T cells (FIG. 10A). RUX increased the fraction of cells that underwent apoptosis from approximately 35% up to about 65% in a concentration dependent fashion.

## N#CC[C@H](C1CCCC1)n1cc(-c2ncnc3[nH]ccc23)cn1 [RUX, ruxolitinib]
[1]; HS-5 with patient #2188 BMMCs
  PD-L1 gene expression in stromal cells co-cultured with BMMCs: reduced
[1]; THP-1 with patient #2188 BMMCs
  PD-L1 gene expression in monocytes (THP-1 cells) co-cultured with BMMCs: reduced
[1]; patient #2188 BMMCs with HS-5
  PD-L1 gene expression in BMMCs co-cultured with stromal cells: reduced
[1]; patient #2188 BMMCs with THP-1
  PD-L1 gene expression in BMMCs co-cultured with monocytes: reduced
[2]
  fraction of cells that underwent apoptosis: about 65%

— patent publication US20220000872A1, “METHOD OF ENHANCING IMMUNE-BASED THERAPY” (OncoTracker, Inc., priority 2018, published 2022)
